Values quoted from earlier work, collected in patent US7906154B2, “Compositions and methods for the induction and maintenance of quality sleep” (priority 2006, dated 2011).
Like-named read-outs stand apart in the source and are kept apart here.

COC1=C(OC)C(=O)C(C/C=C(\C)CC/C=C(\C)CC/C=C(\C)CC/C=C(\C)CC/C=C(\C)CC/C=C(\C)CC/C=C(\C)CC/C=C(\C)CC/C=C(\C)CCC=C(C)C)=C(C)C1=O [CoQ10, Coenzyme Q10]
subjects with a decrease in the sound level of their snoring (during non-REM sleep stages I/II): about 40% | subjects with a decrease in the sound level of their snoring (during non-REM sleep stages III/IV): about 33% | subjects with a decrease in the sound level of their snoring (during the REM stage of sleep): about 44%
